Source: article PMC12420824, “Discovery of a selective alpha-kinase 1 inhibitor for the rare genetic disease ROSAH syndrome” (Nature Communications, 2025)

How the values were obtained:
Test in all cases: HotSpot kinase assay
Conditions in all cases: read-out: % Enzyme Activity (relative to DMSO control), 10 uM
ALK = ALK (Homo sapiens, UniProt Q9UM73)
Text: (§1) Additionally, a 10-dose dilution series of staurosporine and other enzyme-appropriate compounds were included as positive control inhibitors.

JAK1 = JAK1 (Homo sapiens, UniProt P23458)
Text: as §1

CAMK2d = CAMK2d (Homo sapiens, UniProt Q13557)
MYLK4 = MYLK4 (Homo sapiens, UniProt Q86YV6)
Text: as §1

CK2a = CK2a (Homo sapiens, UniProt P68400)
Text: as §1

c-MET = c-MET (Homo sapiens, UniProt P08581)
Text: as §1

PDGFRb = PDGFRb (Homo sapiens, UniProt P09619)
MYO3b = MYO3b (Homo sapiens, UniProt Q8WXR4)
FGFR1 = FGFR1 (Homo sapiens, UniProt P11362)
Text: as §1

NEK7 = NEK7 (Homo sapiens, UniProt Q8TDX7)
Text: as §1

LYN B = LYN B (Homo sapiens, UniProt P07948)
AMPK (A1/B2/G2) = AMPK (A1/B2/G2) (Homo sapiens, UniProt Q13131)
Text: as §1

GSK3b = GSK3b (Homo sapiens, UniProt P49841)
Text: as §1

ALK6/BMPR1B = ALK6/BMPR1B (Homo sapiens, UniProt O00238)
Text: as §1

ZIPK/DAPK3 = ZIPK/DAPK3 (Homo sapiens, UniProt O43293)
Text: as §1

CLK2 = CLK2 (Homo sapiens, UniProt P49760)
Text: as §1

PKCeta = PKCeta (Homo sapiens, UniProt P24723)
Text: as §1

PAK5 = PAK5 (Homo sapiens, UniProt Q9P286)
Text: as §1

TLK1 = TLK1 (Homo sapiens, UniProt Q9UKI8)
Text: as §1

ROCK1 = ROCK1 (Homo sapiens, UniProt Q13464)
Text: as §1

HIPK2 = HIPK2 (Homo sapiens, UniProt Q9H2X6)
Text: as §1

RAF1 = RAF1 (Homo sapiens, UniProt P04049)
SRMS = SRMS (Homo sapiens, UniProt Q9H3Y6)
FYN = FYN (Homo sapiens, UniProt P06241)
TNIK = TNIK (Homo sapiens, UniProt Q9UKE5)
CDK18/cyclin Y (PCTK3) = CDK18/cyclin Y (PCTK3) (Homo sapiens, UniProt Q07002)
Text: as §1

EIF2AK1 = EIF2AK1 (Homo sapiens, UniProt Q9BQI3)
Text: as §1

SSTK/TSSK6 = SSTK/TSSK6 (Homo sapiens, UniProt Q9BXA6)
TESK2 = TESK2 (Homo sapiens, UniProt Q96S53)
MYO3A = MYO3A (Homo sapiens, UniProt Q8NEV4)
Text: as §1

CDK17/cyclin Y (PCTK2) = CDK17/cyclin Y (PCTK2) (Homo sapiens, UniProt Q00537)
Text: as §1

TGFBR2 = TGFBR2 (Homo sapiens, UniProt P37173)
Text: as §1

CAMK1b = CAMK1b (Homo sapiens, UniProt Q6P2M8)
BLK = BLK (Homo sapiens, UniProt P51451)
LYN = LYN (Homo sapiens, UniProt P07948)
Text: as §1

ALK1/ACVRL1 = ALK1/ACVRL1 (Homo sapiens, UniProt P37023)
Text: as §1

PKCb1 = PKCb1 (Homo sapiens, UniProt P05771)
Text: as §1

WNK2 = WNK2 (Homo sapiens, UniProt Q9Y3S1)
RIPK2 = RIPK2 (Homo sapiens, UniProt O43353)
TEC = TEC (Homo sapiens, UniProt P42680)
Text: as §1

Chain of SRMS (Q9H3Y6 whole entry): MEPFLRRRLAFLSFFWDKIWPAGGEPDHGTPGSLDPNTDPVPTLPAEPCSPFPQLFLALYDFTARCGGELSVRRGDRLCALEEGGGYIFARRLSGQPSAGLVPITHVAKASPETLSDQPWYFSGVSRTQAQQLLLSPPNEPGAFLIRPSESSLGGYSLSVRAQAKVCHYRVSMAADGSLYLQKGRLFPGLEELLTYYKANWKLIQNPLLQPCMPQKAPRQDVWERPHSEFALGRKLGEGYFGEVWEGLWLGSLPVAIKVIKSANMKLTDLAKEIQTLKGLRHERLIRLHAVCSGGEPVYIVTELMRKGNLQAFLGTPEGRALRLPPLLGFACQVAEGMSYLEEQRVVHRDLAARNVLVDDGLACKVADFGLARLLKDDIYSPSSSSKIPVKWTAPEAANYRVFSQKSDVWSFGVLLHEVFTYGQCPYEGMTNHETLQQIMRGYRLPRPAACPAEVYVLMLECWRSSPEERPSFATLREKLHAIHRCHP
Chain of ALK6/BMPR1B (O00238 14-502): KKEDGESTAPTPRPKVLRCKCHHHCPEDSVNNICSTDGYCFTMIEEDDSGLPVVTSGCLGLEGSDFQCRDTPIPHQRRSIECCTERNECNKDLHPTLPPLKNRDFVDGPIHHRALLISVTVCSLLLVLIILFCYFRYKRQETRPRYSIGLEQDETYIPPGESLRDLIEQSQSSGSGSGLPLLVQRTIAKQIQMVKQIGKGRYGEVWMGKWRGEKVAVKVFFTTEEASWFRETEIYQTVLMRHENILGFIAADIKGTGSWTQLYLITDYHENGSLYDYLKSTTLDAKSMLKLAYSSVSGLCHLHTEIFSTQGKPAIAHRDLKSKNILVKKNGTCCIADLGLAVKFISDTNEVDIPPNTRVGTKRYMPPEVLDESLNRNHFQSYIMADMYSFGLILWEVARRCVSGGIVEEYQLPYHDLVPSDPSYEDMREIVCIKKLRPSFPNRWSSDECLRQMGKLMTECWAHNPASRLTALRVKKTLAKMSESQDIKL
Chain of FGFR1 (P11362 22-822): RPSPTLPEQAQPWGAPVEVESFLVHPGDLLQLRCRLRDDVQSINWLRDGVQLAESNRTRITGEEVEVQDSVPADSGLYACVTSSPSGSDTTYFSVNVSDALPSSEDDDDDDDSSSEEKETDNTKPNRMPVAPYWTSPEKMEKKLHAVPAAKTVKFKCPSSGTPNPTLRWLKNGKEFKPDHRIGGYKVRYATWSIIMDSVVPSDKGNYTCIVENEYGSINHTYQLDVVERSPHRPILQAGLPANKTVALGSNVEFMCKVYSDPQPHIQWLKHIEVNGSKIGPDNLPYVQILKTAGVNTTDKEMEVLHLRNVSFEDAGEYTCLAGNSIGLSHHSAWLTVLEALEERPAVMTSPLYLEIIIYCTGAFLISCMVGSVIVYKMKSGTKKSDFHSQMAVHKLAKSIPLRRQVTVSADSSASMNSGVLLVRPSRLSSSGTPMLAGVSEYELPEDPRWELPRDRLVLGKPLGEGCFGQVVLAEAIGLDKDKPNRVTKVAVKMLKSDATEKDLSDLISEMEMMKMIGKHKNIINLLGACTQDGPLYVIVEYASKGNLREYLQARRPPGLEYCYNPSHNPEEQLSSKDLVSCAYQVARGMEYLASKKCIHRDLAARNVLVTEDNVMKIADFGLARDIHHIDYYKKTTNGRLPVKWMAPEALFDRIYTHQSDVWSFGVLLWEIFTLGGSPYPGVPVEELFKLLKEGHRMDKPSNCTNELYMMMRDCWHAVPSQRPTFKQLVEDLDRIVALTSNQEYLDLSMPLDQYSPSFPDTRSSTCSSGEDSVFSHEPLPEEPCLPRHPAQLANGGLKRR
Chain of CAMK1b (Q6P2M8 whole entry): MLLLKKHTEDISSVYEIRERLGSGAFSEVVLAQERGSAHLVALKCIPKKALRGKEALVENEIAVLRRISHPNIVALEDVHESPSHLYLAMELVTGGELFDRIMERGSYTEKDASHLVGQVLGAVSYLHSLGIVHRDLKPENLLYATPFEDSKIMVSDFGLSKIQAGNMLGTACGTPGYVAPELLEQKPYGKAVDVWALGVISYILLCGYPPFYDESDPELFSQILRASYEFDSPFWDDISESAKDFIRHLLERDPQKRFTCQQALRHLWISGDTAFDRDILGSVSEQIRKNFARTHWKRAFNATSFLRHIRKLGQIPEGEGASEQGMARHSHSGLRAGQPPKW
Chain of ALK1/ACVRL1 (P37023 22-503): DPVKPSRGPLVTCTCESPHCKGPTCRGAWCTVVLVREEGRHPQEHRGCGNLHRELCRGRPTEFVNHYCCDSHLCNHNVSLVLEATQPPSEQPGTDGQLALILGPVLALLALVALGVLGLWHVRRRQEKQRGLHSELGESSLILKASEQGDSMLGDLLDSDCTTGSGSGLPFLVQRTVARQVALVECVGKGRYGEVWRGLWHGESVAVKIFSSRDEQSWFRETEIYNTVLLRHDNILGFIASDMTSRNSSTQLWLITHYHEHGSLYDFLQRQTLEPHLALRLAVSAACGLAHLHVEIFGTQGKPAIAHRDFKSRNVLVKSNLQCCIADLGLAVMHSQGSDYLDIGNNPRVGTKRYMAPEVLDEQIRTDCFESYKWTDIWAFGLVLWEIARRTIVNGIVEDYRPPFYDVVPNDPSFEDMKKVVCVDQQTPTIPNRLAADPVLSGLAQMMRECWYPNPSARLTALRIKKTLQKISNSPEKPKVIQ
Chain of CK2a (P68400 whole entry): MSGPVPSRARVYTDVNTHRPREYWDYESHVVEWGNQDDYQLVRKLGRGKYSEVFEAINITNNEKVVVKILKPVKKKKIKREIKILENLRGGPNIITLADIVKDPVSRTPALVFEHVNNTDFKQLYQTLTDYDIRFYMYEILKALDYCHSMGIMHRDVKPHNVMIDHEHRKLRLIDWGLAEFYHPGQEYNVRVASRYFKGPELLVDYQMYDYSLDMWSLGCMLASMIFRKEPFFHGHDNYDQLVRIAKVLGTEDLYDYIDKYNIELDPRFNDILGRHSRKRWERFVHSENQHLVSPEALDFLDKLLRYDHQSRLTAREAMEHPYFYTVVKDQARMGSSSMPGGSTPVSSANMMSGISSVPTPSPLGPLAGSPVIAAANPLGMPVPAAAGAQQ
Chain of TLK1 (Q9UKI8 whole entry): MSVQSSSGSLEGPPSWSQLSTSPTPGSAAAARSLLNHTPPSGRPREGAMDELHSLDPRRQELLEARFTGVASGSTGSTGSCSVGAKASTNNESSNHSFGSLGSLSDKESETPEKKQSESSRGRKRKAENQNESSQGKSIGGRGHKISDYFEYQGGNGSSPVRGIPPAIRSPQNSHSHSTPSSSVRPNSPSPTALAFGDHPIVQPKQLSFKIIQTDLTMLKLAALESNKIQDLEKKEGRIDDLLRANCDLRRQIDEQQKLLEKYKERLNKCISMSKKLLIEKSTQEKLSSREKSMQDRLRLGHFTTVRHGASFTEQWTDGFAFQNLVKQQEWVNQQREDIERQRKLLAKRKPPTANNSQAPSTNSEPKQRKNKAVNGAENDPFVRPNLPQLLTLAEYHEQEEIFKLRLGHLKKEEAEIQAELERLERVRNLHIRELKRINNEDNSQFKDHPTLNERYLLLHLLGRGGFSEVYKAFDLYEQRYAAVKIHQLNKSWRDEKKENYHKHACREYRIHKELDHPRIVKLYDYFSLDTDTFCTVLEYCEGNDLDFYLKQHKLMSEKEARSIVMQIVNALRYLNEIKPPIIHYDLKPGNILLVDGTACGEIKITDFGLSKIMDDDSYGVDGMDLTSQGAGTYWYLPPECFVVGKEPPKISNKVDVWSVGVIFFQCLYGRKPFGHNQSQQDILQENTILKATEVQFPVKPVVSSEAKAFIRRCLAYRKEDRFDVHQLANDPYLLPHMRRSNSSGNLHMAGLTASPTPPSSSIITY
Chain of PKCb1 (P05771 whole entry): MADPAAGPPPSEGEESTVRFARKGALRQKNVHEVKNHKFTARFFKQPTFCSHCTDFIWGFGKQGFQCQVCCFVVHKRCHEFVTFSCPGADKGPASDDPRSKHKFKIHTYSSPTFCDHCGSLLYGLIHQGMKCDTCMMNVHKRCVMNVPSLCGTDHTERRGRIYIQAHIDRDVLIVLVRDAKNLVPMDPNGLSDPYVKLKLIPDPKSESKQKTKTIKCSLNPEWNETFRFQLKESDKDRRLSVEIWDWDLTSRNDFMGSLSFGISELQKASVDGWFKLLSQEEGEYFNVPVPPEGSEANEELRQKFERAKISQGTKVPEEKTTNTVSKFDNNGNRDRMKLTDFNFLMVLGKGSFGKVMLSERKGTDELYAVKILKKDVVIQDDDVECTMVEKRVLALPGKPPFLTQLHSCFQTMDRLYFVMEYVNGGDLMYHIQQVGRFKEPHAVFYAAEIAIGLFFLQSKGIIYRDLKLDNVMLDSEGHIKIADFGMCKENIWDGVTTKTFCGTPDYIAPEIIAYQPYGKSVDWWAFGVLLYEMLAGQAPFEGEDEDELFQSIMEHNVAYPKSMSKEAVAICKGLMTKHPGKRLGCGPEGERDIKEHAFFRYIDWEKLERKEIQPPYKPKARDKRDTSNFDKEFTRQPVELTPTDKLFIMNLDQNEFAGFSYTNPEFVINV
Chain of TESK2 (Q96S53 whole entry): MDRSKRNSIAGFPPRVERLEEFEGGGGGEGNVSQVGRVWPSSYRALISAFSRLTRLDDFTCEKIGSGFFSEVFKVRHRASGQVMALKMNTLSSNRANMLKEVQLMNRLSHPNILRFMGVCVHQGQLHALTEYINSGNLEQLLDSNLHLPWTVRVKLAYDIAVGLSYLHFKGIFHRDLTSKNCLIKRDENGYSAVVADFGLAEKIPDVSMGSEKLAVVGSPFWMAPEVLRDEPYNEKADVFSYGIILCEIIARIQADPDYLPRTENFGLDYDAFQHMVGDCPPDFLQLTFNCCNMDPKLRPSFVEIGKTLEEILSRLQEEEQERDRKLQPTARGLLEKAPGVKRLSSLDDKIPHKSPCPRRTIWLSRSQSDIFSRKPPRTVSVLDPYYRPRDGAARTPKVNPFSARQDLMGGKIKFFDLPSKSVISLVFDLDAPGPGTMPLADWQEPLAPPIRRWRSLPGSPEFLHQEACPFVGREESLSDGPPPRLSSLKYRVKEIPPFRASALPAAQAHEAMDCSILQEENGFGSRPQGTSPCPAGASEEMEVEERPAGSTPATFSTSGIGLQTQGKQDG

SMILES: C#C[C@@](C)(c1ccc(Cl)cc1)c1csc(NC(=O)c2c(F)cc(N3CCNCC3)cc2F)n1 (stereo in doubt) [DF-003]
- remaining activity at 10 µM (ALK): 115%
- remaining activity at 10 µM (JAK1): 84.6%
- remaining activity at 10 µM (CAMK2d): 7.88%
- remaining activity at 10 µM (MYLK4): 87.1%
- remaining activity at 10 µM (CK2a): 101%
- remaining activity at 10 µM (c-MET): 90.7%
- remaining activity at 10 µM (PDGFRb): 80.2%
- remaining activity at 10 µM (MYO3b): 94.4%
- remaining activity at 10 µM (FGFR1): 68.8%
- remaining activity at 10 µM (NEK7): 118%
- remaining activity at 10 µM (LYN B): 143%
- remaining activity at 10 µM (AMPK (A1/B2/G2)): 113%
- remaining activity at 10 µM (GSK3b): 93.3%
- remaining activity at 10 µM (ALK6/BMPR1B): 123%
- remaining activity at 10 µM (ZIPK/DAPK3): 68.5%
- remaining activity at 10 µM (CLK2): 90.6%
- remaining activity at 10 µM (PKCeta): 75.3%
- remaining activity at 10 µM (PAK5): 104%
- remaining activity at 10 µM (TLK1): 96.5%
- remaining activity at 10 µM (ROCK1): 94.8%
- remaining activity at 10 µM (HIPK2): 101%
- remaining activity at 10 µM (RAF1): 94.2%
- remaining activity at 10 µM (SRMS): 97.9%
- remaining activity at 10 µM (FYN): 98.7%
- remaining activity at 10 µM (TNIK): 75.5%
- remaining activity at 10 µM (CDK18/cyclin Y (PCTK3)): 92.3%
- remaining activity at 10 µM (EIF2AK1): 91.9%
- remaining activity at 10 µM (SSTK/TSSK6): 98.4%
- remaining activity at 10 µM (TESK2): 81.8%
- remaining activity at 10 µM (MYO3A): 75.5%
- remaining activity at 10 µM (CDK17/cyclin Y (PCTK2)): 82.4%
- remaining activity at 10 µM (TGFBR2): 91.5%
- remaining activity at 10 µM (CAMK1b): 36.7%
- remaining activity at 10 µM (BLK): 74.5%
- remaining activity at 10 µM (LYN): 137%
- remaining activity at 10 µM (ALK1/ACVRL1): 89.1%
- remaining activity at 10 µM (PKCb1): 91.2%
- remaining activity at 10 µM (WNK2): 104%
- remaining activity at 10 µM (RIPK2): 125%
- remaining activity at 10 µM (TEC): 104%
